Target: T1, PSEN1-APH1B γ-secretase complex (Homo sapiens, UniProt P49768)
T1 construct: expressed in transfected cells; host or cells: Psen1/2 double KO/Aph1ABC triple KO MEFs, pMSCV retroviral PSEN-IRES-APH1
Assay: Aβ40 secretion by MEF cell line expressing only PSEN1-APH1B γ-secretase (APP-C99-GFP reporter)
Format: cell-based
Conditions: 8 h, Beerse site unless otherwise indicated, read-out: IC50, Aβ40 peptides
Description: Mouse embryonic fibroblast (MEF) cells deficient for the Psen and Aph1 genes (Psen1/2^−/−, Aph1ABC^−/−) were reconstituted with human PSEN1 or PSEN2 and with human APH1A or APH1B to generate four independent cell lines, each constitutively expressing exclusively one type of γ-secretase complex (Fig. S1A) ([19]). A human APP-C99-GFP reporter was introduced to enable the measurement of Aβ peptides in the conditioned media of the cells to monitor γ-secretase activity. The assay was established in a 96-well format.
Conditional Psen1/2 double KO mice were crossed with conditional Aph1ABC triple KO mice ([29], [52], [58], [59]). At embryonic day 7.5, embryos were dissected and dissociated, and cells were plated in the presence of Dulbecco’s modified Eagle’s medium (DMEM)/F12 50% fetal calf serum (FCS) (Invitrogen). Primary MEFs were immortalized by transduction with LargeT antigen. Psen1/2 double KO/Aph1ABC triple KO MEFs were generated by transduction with a Cre-GFP–expressing adenoviral vector, and GFP-positive MEFs were sorted by fluorescence-activated cell sorting analysis. Psen1/2 Aph1ABC-deficient MEFs were maintained in DMEM/f12 10% FCS. To rescue γ-secretase expression, Psen1/2 double KO/Aph1ABC triple KO MEFs were transduced using Murine Stem Cell Virus retroviral vector system (pMSCV) viral vectors (Clontech) containing the human coding sequences of the different PSEN and APH1 homologs and the zeocin selection marker. An Internal Ribosome Entry Site sequence was cloned between the coding sequences for PSEN and APH1 to ensure co-expression of both proteins. Stable transfected cell lines were selected using 500-μg/ml zeocin (Invitrogen). Four different combinations were made: PSEN1 and APH1AL, PSEN1 and APH1B, PSEN2 and APH1AL, and PSEN2 and APH1B. These cell lines were transduced with pMSCV viral vectors (Clontech) expressing APP-C99-GFP-puromycin. After puromycin selection (5 μg/ml), GFP-positive cells were selected through FACS sorting. For the alanine mutagenesis experiment, pMSCV PSEN1-APH1A viral vectors were generated by using a long PCR-based QuikChange strategy (Stratagene). Stable cell lines without clonal selection were generated for each mutant as described above. All cell lines were regularly tested for the absence of mycoplasma and used for maximum 20 passages in culture.
The number of plated cells and incubation times were determined in respect to linearity of Aβ peptide secretion, the dynamic range of Aβ peptide quantification in the medium, and sensitivity to dimethylsulfoxide (DMSO). […] MEF cells were plated in DMEM F12 supplemented with 10% FCS at 10,000 cells per well in 96-well clear bottom plates in the late afternoon and cultured for 16 h at 37 °C, 5% CO2. In the morning of the second day, the medium was replaced with 60 μl of DMEM/F12 supplemented with 2% FCS, and GSI or DMSO (controls) were added. Compounds were tested in serial dilutions with concentrations ranging from […] to 0.1 nM with 3-fold changes. The final concentration of DMSO in all wells was 0.2%. Plates were put in the incubator again at 37 °C, 5% CO2. After 8 h, the culture media were collected, and 30 μl was used to measure Aβ40 peptides. The cell viability was assessed using the CellTiter-Glo Luminescent assay (Promega) that measures ATP production. All screens were performed at one site, and reported IC50 values throughout the manuscript are from this site (Beerse) unless otherwise indicated.
Standard 96-well SECTOR plates (MSD) were coated with 1.5 μg/ml anti-Aβ JRFcAβ40/28 capture antibody in a final volume of 50 μl of PBS 0.05% Tween 20.

IC50: 6 nM
SMILES: O=S(=O)(c1ccc(Cl)cc1)N1[C@H]2CC[C@@H]([C@H]1c1ccc(C(F)(F)F)cc1)[C@@H](O)C2 [(+)-9b]

Reference: PMC10318456, “Selective inhibitors of the PSEN1–gamma-secretase complex” (The Journal of Biological Chemistry, 2023)
